Test results reported in patent publication US20150272928A1, “INDOLE DERIVATIVES” (UNIVERSITY OF CENTRAL LANCASHIRE, priority 2012, published 2015).
Entries after “also recorded” stand apart in the source; their conditions may differ.

Legend:
[1] = Stability under acidic conditions; format: physicochemical
[2] = tested on: 1321N1 cells; experiment: Reactive oxygen species detection assay (carboxy-H2DCFDA, flow cytometry), 1321N1 cells; format: cell-based; conditions: for ROS induction / oxidative stress: shift of H2DCFDA fluorescence signal compared to control: 1321N1, 500 μM, 1 h, flow cytometry, positive control TBHP 100 μM
Description: (§1) The inventors hypothesised that the active indoles were acting through a radical-based mechanism, which was most likely related to the generation of reactive oxygen species (ROS).^[6] As such, the inventors chose the Image-iT™ LIVE Green Reactive Oxygen Species Detection Kit from Invitrogen Ltd, UK, which is able to detect reactive oxygen species (ROS) in live cells, to assess selected indoles. Oxidatively stressed cells, when labeled with the carboxy-H2DCFDA dye provided, should generate fluorescence which is detectable using a confocal microscope and flow cytometry. Various assays were therefore performed in accordance with the following protocols.
(§2) 1321N1 cells were maintained in Dulbeccos's Modified Eagle's Medium (DMEM) supplemented with 10% (v/v) foetal bovine serum (FBS) and 2 mM L-glutamine, while the U87MG cell line was maintained in Essential Minimum Eagle Medium (EMEM) supplemented with 10% (v/v) FBS, 2 mM L-glutamine, 1 mM sodium pyruvate and 1% (v/v) non-essential amino acids (NEAA) (Lonza, UK) in a 37° C. humidified incubator supplied with 5% CO2. The 1321N1 and the U87MG cells were trypsinized and cultured overnight at a cell density of 10^4 cells/well/ml and were seeded in 6 well plates (BD Biosciences, UK) and were allowed to attach overnight. 2 ml of this cell suspension was added into each well resulting into a final concentration of 20,000 cells/well. On the day of experiment, cells were labelled with sufficient amount of 25 μM carboxy-H2DCFDA dye and were incubated for 30 min at 37° C., protected from light. Cells were then treated with 500 μM of indole 4 and positive control [tert-butyl hydroperoxide (TBHP)](100 μM) and negative control (indole 2) (500 μM) for 60 mins. Cells were gently washed with Hank[…]s balanced salt solution (HBSS) warm buffer three times and then trypsinized, centrifuged and resuspended in 300 μl PBS. Cells were filtered through cell strainer caps (35 μm mesh) to obtain a single cell suspension and analysed using a FACSAria flow cytometer (BD Biosciences). The untreated vehicle controls contained ≦0.5% absolute ethanol and DMSO as indole 4 was dissolved in absolute ethanol while TBHP and indole 2 were dissolved in DMSO.
(§3) In the event, to confirm and quantify the amount of fluorescence (due to ROS) produced, glioma cell lines 1321N1 and U87MG were seeded in separate 6 well plates and were left overnight to attach. On the day of the experiment the carboxy-H2DCFDA dye was added to the cells which were incubated for 30 min in the dark. Indoles 2, 3, 4 and 7 (500 μM) were then added, in separate experiments, and left for 1 h incubation. Cells were thoroughly washed at each step to prevent background staining and they were imaged immediately after incubation.

[3] = tested on: U87MG cells; experiment: MTS assay, U87MG glioma cell line; format: cell-based
Experimental: (§4) 1321N1 cells were maintained in Dulbeccos's Modified Eagle's Medium (DMEM) supplemented with 10% (v/v) foetal bovine serum (FBS) and 2 mM L-glutamine, while the U87MG cell line was maintained in Essential Minimum Eagle Medium (EMEM) supplemented with 10% (v/v) FBS, 2 mM L-glutamine, 1 mM sodium pyruvate and 1% (v/v) non-essential amino acids (NEAA) (Lonza, UK) in a 37° C. humidified incubator supplied with 5% CO2. The 1321N1 and the U87MG cells were trypsinized and cultured overnight at a cell density of 3500 cells/200 μl and 4000 cells/200 μl respectively in 96-well microtitre plates (Sarstedt, UK). The following day when the cells looked 50-60% confluent, each concentration of the commercial drugs and novel compounds mentioned above were added in quadruplicates and left for incubation for 48 hours. After 48 hours, 20 μl of the pre-warmed MTS reagent (Promega, UK) was added to each of the wells and the 96-well plates were incubated at 37° C. humidified incubator supplied with 5% CO2 for 60 min. At the end of 60 min, the absorbance was recorded at 490 nm using a Tecan GENios Pro® microplate reader. The concentration of compound that inhibits 50% of cell growth (IC50) compared to untreated vehicle controls containing ≦0.5% absolute ethanol was calculated by nonlinear regression analysis. Absolute ethanol was used in the vehicle controls as indole 4 was dissolved in absolute ethanol.

[4] = tested on: U87MG cells; experiment: Reactive oxygen species detection assay (carboxy-H2DCFDA, flow cytometry), U87MG cells; format: cell-based; conditions: 500 μM, 1 h, positive control TBHP 100 μM
Description: as §1, §2, §3

[5] = tested on: 1321N1 cells; experiment: MTS assay, 1321N1 glioma cell line; format: cell-based; conditions: 48 h; for activity against the 1321N1 cell line (in words): MTS assay
Experimental: as §4

[6] = tested on: primary cell culture (IN859); experiment: IC50 against primary cell culture IN859 from a glioblastoma multiforme patient biopsy; format: cell-based; conditions: cells from a biopsy from a glioblastoma multiforme patient
Description: Based on these preliminary results the inventors were keen to discover if the effects would also be observed against a primary cell culture (IN859) from cells obtained from a biopsy from a glioblastoma multiforme patient.

[7] = tested on: U87MG cells; experiment: Acridine orange assay of acidic vesicular organelle (AVO) formation, U87MG cells; format: cell-based; conditions: 500 μM, 1 h, flow cytometry
Experimental: (§5) 1321N1 cells were maintained in Dulbeccos's Modified Eagle's Medium (DMEM) supplemented with 10% (v/v) foetal bovine serum (FBS) and 2 mM L-glutamine, while the U87MG cell line was maintained in Essential Minimum Eagle Medium (EMEM) supplemented with 10% (v/v) FBS, 2 mM L-glutamine, 1 mM sodium pyruvate and 1% (v/v) non-essential amino acids (NEAA) (Lonza, UK) in a 37° C. humidified incubator supplied with 5% CO2. The 1321N1 and the U87MG cells were trypsinized and cultured overnight at a cell density of 10^4 cells/well/ml and were seeded in 6 well plates (BD Biosciences, UK) and were allowed to attach overnight. 2 ml of this cell suspension was added into each well resulting into a final concentration of 20,000 cells/well. After 24 h of incubation, cells were treated with 500 μM of indole 4 for 60 min. After 60 min incubation with the compound the cells were stained with 3 μM acridine orange and incubated for 15 min at 37° C., protected from light. […] Cells were filtered through cell strainer caps (35 μm mesh) to obtain a single cell suspension and analysed using a FACSAria flow cytometer (BD Biosciences). […]
(§6) The glioma cells were seeded in 6 well plates and were left overnight to attach. The cells were then treated with indole 4 for 1 h, stained with acridine orange for 15 min, and were analysed by flow cytometry.

[8] = tested on: 1321N1 cells; experiment: Acridine orange assay of acidic vesicular organelle (AVO) formation, 1321N1 cells; format: cell-based; conditions: 1321N1, 500 μM, 1 h, flow cytometry
Experimental: as §5, §6

[9] = tested on: 1321N1 cells; experiment: MTS assay, 1321N1 glioma cell line; format: cell-based; conditions: 1321N1, co-treatment with ascorbic acid
[10] = Homo sapiens, U-87 MG, 48 h, average and standard deviation of four repeats, dash = IC50 value not reached
[11] = Homo sapiens, 1321-N1, average and standard deviation of four repeats, dash = IC50 value not reached
[12] = 48 h, average and standard deviation of four repeats, dash = IC50 value not reached
[13] = average and standard deviation of four repeats, dash = IC50 value not reached

Row | IC50 [3, 10] [µM] | IC50 [5, 11] [µM] | Structure (SMILES) | ROS induction / oxidative stress: shift of H2DCFDA fluorescence signal compared to control [2] | ROS induction / oxidative stress: shift of H2DCFDA fluorescence signal compared to control [4] | activity against the 1321N1 cell line (in words) [5] | further results
1 | 176 ± 1 | 111 ± 1 | OCc1c(-c2ccccc2)[nH]c2ccccc12 [Compound 3, (2-phenyl-1H-indol-3-yl)methanol] | shift of the fluorescence signal; also recorded: to a greater level than the positive control | shift of the fluorescence signal; also recorded: to a greater level than the positive control | active | stability under acidic conditions [1]: slightly unstable
2 | 585 ± 2 | 374 ± 2 | OCc1c[nH]c2ccccc12 [Compound 1, (1H-indol-3-yl)methanol] |  |  | active | 
3 | > 400 |  | c1ccc(-c2cc3ccccc3[nH]2)cc1 [Compound 2, 2-phenyl-1H-indole] | no shift was observed | no shift was observed | not able to inhibit the growth | MTS assay IC50 values U87MG [3, 12]: does not reach its IC50; inhibition at 400 µM ([3]; Homo sapiens, U-87 MG, U87MG, at 400 μM, 48 h, read-out: maximum growth inhibition): 7%; MTS assay IC50 values 1321N1 [5, 13]: does not reach its IC50
4 | 379 ± 4 | 445 ± 4 | Oc1ccccc1-c1cc2ccccc2[nH]1 [Compound 4, 2-(1H-indol-2-yl)phenol] | shift of the fluorescence signal; also recorded: to a greater level than the positive control | shift of the fluorescence signal; also recorded: to a greater level than the positive control | active | IC50 [6]: 398 ± 3 µM; level of fluorescence (ROS) on co-treatment with ascorbic acid ([2]; 1321N1, indole 4 500 μM plus ascorbic acid 100 μM, data not shown): less than the vehicle control cells alone; cell viability in the presence of ascorbic acid ([3]; MTS assay, U87MG, co-treatment with ascorbic acid): cell viability was unaffected; AVO formation (acridine orange red fluorescence) [7]: increased amount of red fluorescence; AVO formation (acridine orange red fluorescence) [8]: increased amount of red fluorescence; cell viability in the presence of ascorbic acid [9]: cell viability was unaffected
5 |  |  | O=Cc1c(-c2ccccc2)[nH]c2ccccc12 [Compound 6, 2-phenyl-1H-indole-3-carbaldehyde] |  |  | inactive | activity against the U87MG cell line (in words) ([3]; MTS assay, 48 h): inactive
6 |  |  | N.N.[Cl][Pt][Cl] [cisplatin] |  |  | active | IC50 [3, 12]: 310 ± 4 µM; IC50 [5, 13]: 11 ± 2 µM
7 |  |  | COc1ccccc1-c1cc2ccccc2[nH]1 [Compound 7, 2-(2-methoxyphenyl)-1H-indole, reference compound] | no shift was observed | no shift was observed | inactive | activity against the U87MG cell line (in words) ([3]; MTS assay, 48 h): inactive
